Results reported in PMC9738179, “New Nucleic Base-Tethered Trithiolato-Bridged Dinuclear Ruthenium(II)-Arene Compounds: Synthesis and Antiparasitic Activity” (Molecules, 2022).
Where “and” joins values, the source holds several entries; their conditions need not be identical. Equal values may be shown once. Entries after “also recorded” stand apart in the source; their conditions may differ. Read-outs that look alike come from different tables or passages of the source.

What was measured:
[1] = tested on: T. gondii β-gal tachyzoites; design: method as in PMID 32347622, doi:10.3390/inorganics9080059, PMID 34144354; details: previously reported, ref [93],[96],[111], cited from earlier work
[2] = tested on: human foreskin fibroblasts (HFF); details: cited from earlier work
[3] = Stability in DMSO-d6 by 1H NMR (5 min vs 100 days); assay type: physicochemical; details: 25 °C, 5 min and 100 days after sample preparation, stored at 0-5 °C in the dark
Description: For the biological activity evaluation, 1 mM stock solutions of all compounds were prepared in dimethylsulfoxide (DMSO).
The conjugates are well soluble in DMSO, solvent used to prepare standard solutions for biological […]
To assess their stability, compounds 4, 24, 28, 33 and 39 were dissolved in DMSO-d6, and two 1H NMR spectra were recorded at 25°C 5 min and at least 100 days after sample preparation (Figures S1 and S2).
Between the two experiments, the samples were stored at 0°C. For all compounds, there are no significant changes between the spectrum recorded after 5 min and the spectrum recorded after at least […]
further biological tests.
Figure S1. […]

[4] = tested on: T. gondii β-gal tachyzoites; details: cited from earlier work
[5] = tested on: human foreskin fibroblasts (HFF); assay: Cytotoxicity in non-infected HFF by alamarBlue assay; assay type: cell-based
Description: (§1) The screening cascade for the compounds was described in former studies. All compounds were prepared as 1 mM stock solutions from powder, in dimethyl sulfoxide (DMSO, Sigma, St. Louis, MO, USA). For in vitro activity and cytotoxicity assays, HFF were seeded at 5 × 10^3/well and allowed to grow to confluence in phenol-red free culture medium at 37 °C and 5% CO2. T. gondii tachyzoites were released from host cells, and HFF monolayers were infected with freshly isolated parasites (1 × 10^3/well), and compounds were added concomitantly with infection.
(§2) Cytotoxicity assays using uninfected confluent HFF host cells were performed by the alamarBlue assay as previously reported. Confluent HFF monolayers in 96 well-plates were exposed to 0.1, 1, and 2.5 μM of each compound. Non-treated HFF as well as DMSO controls (0.01%, 0.1%, and 0.25%) were included. After 72 h of incubation at 37 °C/5% CO2, the medium was removed, and the plates were washed once with PBS. Resazurin suspended in PBS to a final concentration of 0.01 g/L was added to each well (200 μL/well). Fluorescence was measured at excitation wavelength 530 nm and emission wavelength […] using an EnSpire® multimode plate reader (PerkinElmer, Inc, Waltham, MA, USA). The cytotoxicity values were calculated as percentage of the respective DMSO control, which represented 100% of HFF viability.

[6] = tested on: T. gondii β-gal tachyzoites; assay: Dose-response study (IC50) against T. gondii β-gal tachyzoites; assay type: cell-based, Toxoplasma gondii; details: 8 serial concentrations 0.007-1 µM, 72 h
Description: as §1
For the dose-response study (IC50 values), measurements for T. gondii β-gal were performed. The selected compounds were added concomitantly with infection in 8 serial concentrations 0.007, 0.01, 0.03, 0.06, 0.12, 0.25, 0.5, and 1 μM.
(§3) To measure the activity of the tested compound on T. gondii β-gal parasites, after a period of 72 h of culture at 37 °C/5% CO2, the culture medium was aspirated, and cells were permeabilized by adding 90 μL PBS (phosphate buffered saline) with 0.05% Triton X-100. Next, 10 μL of 5 mM chlorophenolred-β-D-galactopyranoside (CPRG; Roche Diagnostics, Rotkreuz, Switzerland, substrate for the β-galactosidase) in PBS were added. Release of chlorophenol red was measured at 570 nm using an EnSpire® multimode plate reader (PerkinElmer, Inc., Waltham, MA, USA). A 100% proliferation of T. gondii β-gal was assigned to control parasites treated only with DMSO. For the primary screening at 0.1 and 1 μM, the activity was measured as the release of chlorophenol red over time and was calculated as percentage from the respective DMSO treated control, which represented 100% of T. gondii β-gal growth.
For the IC50 assays, the activity measured as the release of chlorophenol red over time was proportional to the number of live parasites down to 50 per well as determined in pilot assays. IC50 values were calculated after the logit-log-transformation of relative growth and subsequent regression analysis. All calculations were performed using the corresponding software tool contained in the Excel software package (Microsoft, Redmond, WA, USA).

[7] = tested on: T. brucei bloodstream forms; design: method as in PMID 34639127; details: ref [126]; cited from earlier work
[8] = tested on: T. gondii β-gal tachyzoites; assay: Primary screening: T. gondii β-gal proliferation in HFF monolayers at 0.1 and 1 µM (CPRG readout); assay type: cell-based, Toxoplasma gondii; details: tachyzoites cultured in HFF, 72 h, relative to DMSO control
Description: as §1
In the primary screening, HFF monolayers infected with T. gondii β-gal were treated with 0.1 and 1 µM of each compound, or the corresponding concentration of DMSO (0.01 or 0.1%, respectively) as controls and were incubated for 72 h at 37 °C/5% CO2 as previously described.
as §3

[9] = Cytotoxicity in non-infected HFF by alamarBlue assay; assay type: cell-based, human; details: human, non-infected HFF, 72 h, relative to DMSO control, triplicate
Description: as §1, §2

[10] = 0.1 µM, non-infected HFF, previously reported, ref [93],[96],[111]
[11] = 1 µM, non-infected HFF, previously reported, ref [93],[96],[111]
[12] = 0.1 µM, non-infected HFF, 72 h, relative to DMSO control, triplicate
[13] = 2.5 µM, control 0.25% DMSO = 100%, six replicates
[14] = 1 µM, non-infected HFF, 72 h, relative to DMSO control, triplicate

| SMILES | Stability in DMSO-d6 (1H NMR spectra) [3] | HFF Viability (%) [5, 12] | T. gondii β-gal Growth (%) ([8]; 0.1 µM) | viability at 72 h, 0.1 µM [9] | viability at 72 h, 1 µM [9] | T. gondii β-gal Growth (%) ([8]; 1 µM) | other results |
| --- | --- | --- | --- | --- | --- | --- | --- |
| CC(C)(C)c1ccc(C[S+]2[Ru-]3[S+](Cc4ccc(C(C)(C)C)cc4)[Ru-]2[S+]3c2ccc(CC(=O)O)cc2)cc1.Cc1ccc(C(C)C)cc1.Cc1ccc(C(C)C)cc1.[Cl-] (centres unmarked) [Compound 3] |  |  |  |  |  |  | T. gondii β-gal Growth (%) ([1]; 0.1 µM): 114 ± 2%; T. gondii β-gal Growth (%) ([1]; 1 µM): 110 ± 2%; HFF Viability (%) [2, 10]: 91 ± 4%; HFF Viability (%) [2, 11]: 73 ± 1%; HFF viability at 2.5 µM ([2]; 2.5 µM, intermediates previously reported, not in Table 2, ref [93],[111]): did not affect HFF viability |
| CC(C)(C)c1ccc(C[S+]2[Ru-]3[S+](Cc4ccc(C(C)(C)C)cc4)[Ru-]2[S+]3c2ccccc2CO)cc1.Cc1ccc(C(C)C)cc1.Cc1ccc(C(C)C)cc1.[Cl-] (centres unmarked) [Compound 4] | very good stability; also recorded: no modifications |  |  |  |  |  | IC50 ([4]; compound reported earlier, ref [96]): 0.038 µM; T. gondii β-gal Growth (%) ([1]; 0.1 µM): 2 ± 0%; T. gondii β-gal Growth (%) ([1]; 1 µM): 1 ± 0%; HFF Viability (%) [2, 10]: 80 ± 1%; HFF Viability (%) [2, 11]: 69 ± 6%; HFF Viability (%) ([2]; 2.5 µM, compound reported earlier, ref [96]): 4% |
| C#CCNC(=O)Cc1ccc([S+]2[Ru-]3[S+](Cc4ccc(C(C)(C)C)cc4)[Ru-]2[S+]3Cc2ccc(C(C)(C)C)cc2)cc1.Cc1ccc(C(C)C)cc1.Cc1ccc(C(C)C)cc1.[Cl-] (centres unmarked) [Compound 8] |  |  |  |  |  |  | T. gondii β-gal Growth (%) ([1]; 0.1 µM): 52 ± 13%; T. gondii β-gal Growth (%) ([1]; 1 µM): 3 ± 1% |
| CC(C)(C)c1ccc(C[S+]2[Ru-]3[S+](Cc4ccc(C(C)(C)C)cc4)[Ru-]2[S+]3c2ccc(CC(=O)OCCn3cnc4c(N)ncnc43)cc2)cc1.Cc1ccc(C(C)C)cc1.Cc1ccc(C(C)C)cc1.[Cl-] (centres unmarked) [Compound 14] |  | 95 ± 11% | 12 ± 1% |  |  |  | HFF Viability (%) [5, 13]: low toxicity and medium toxicity and 76%; IC50 [6]: 0.059 µM; Activity against T. brucei bloodstream forms [7]: highly active |
| C#CCn1ccc(=O)[nH]c1=O.C#CCn1ccc(=O)[nH]c1=O [Compound 15] |  |  | 109 ± 5% | 107 ± 2% | 96 ± 2% | 83 ± 0% |  |
| C#CCn1cc(C)c(=O)[nH]c1=O.C#CCn1cc(C)c(=O)[nH]c1=O [Compound 16] |  |  | 96 ± 8% | 104 ± 2% | 103 ± 3% | 95 ± 6% |  |
| C#CCn1ccc(N)nc1=O.C#CCn1ccc(N)nc1=O [Compound 17] |  |  | 111 ± 5% | 96 ± 1% | 93 ± 1% | 90 ± 7% |  |
| C#CCn1cnc2c(N)ncnc21.C#CCn1cnc2c(N)ncnc21 [Compound 18] |  |  | 117 ± 4% | 96 ± 2% | 89 ± 3% | 91 ± 6% |  |
| Cc1ccc(C(C)C)cc1.Cc1ccc(C(C)C)cc1.Cc1cn(Cc2cn(-c3ccc([S]4[Ru]5[S](Cc6ccc(C(C)(C)C)cc6)[Ru+]4[S]5Cc4ccc(C(C)(C)C)cc4)cc3)nn2)c(=O)[nH]c1=O.[Cl-] [Compound 24] | very good stability; also recorded: no modifications | 98 ± 10% | 56 ± 15% |  |  |  | HFF Viability (%) [5, 14]: 96 ± 4%; HFF Viability (%) [5, 13]: 85%; IC50 [6]: 0.357 µM |
| [N-]=[N+]=NCc1cc(=O)[nH]c(=O)[nH]1 [Compound 27, 6-(azidomethyl)uracil] |  |  | 101 ± 5% | 98 ± 5% | 102 ± 3% | 99 ± 11% |  |
| NC(=O)CCCc1cn(Cc2cc(=O)[nH]c(=O)[nH]2)nn1 [Compound 28] | very good stability; also recorded: no modifications | 101 ± 1% |  |  |  |  |  |
| [N-]=[N+]=NCCn1cnc2c(N)ncnc21 [Compound 32] |  |  | 103 ± 8% | 104 ± 2% | 103 ± 3% | 94 ± 2% |  |
| CNc1cn(CCn2cnc3c(N)ncnc32)nn1 [Compound 33] | very good stability; also recorded: no modifications | 84 ± 6% | 94 ± 11% |  |  | 83 ± 11% | HFF Viability (%) [5, 14]: 71 ± 3% |
| CC(C)(C)c1ccc(C[S]2[Ru]3[S](Cc4ccc(C(C)(C)C)cc4)[Ru+]2[S]3c2ccc(-n3cc(-c4ccccn4)nn3)cc2)cc1.Cc1ccc(C(C)C)cc1.Cc1ccc(C(C)C)cc1.[Cl-] [Compound 39] | very good stability; also recorded: no modifications | 94 ± 2% | 14 ± 1% |  |  | 0 ± 0% | HFF Viability (%) [5, 14]: 90 ± 1%; HFF Viability (%) [5, 13]: highly toxic and 1%; IC50 [6]: 0.075 µM |
| CCc1nc(N)nc(N)c1-c1ccc(Cl)cc1 [Pyrimethamine, reference compound] |  |  |  |  |  |  | IC50 ([4]; reference compound, ref [93]): 0.326 µM; HFF Viability (%) ([2]; 2.5 µM, reference compound, ref [93]): 99% |
